This note sets out measurements from US20250282812A1, “ANTIVIRAL NUCLEOSIDE ANALOGUE, AND PHARMACEUTICAL COMPOSITION AND USE THEREOF” (SHANGHAI INSTITUTE OF MATERIA MEDICA , CHINESE ACADEMY OF …, priority 2022, published 2025).

pEC50: −log10 of the molar value. Structures can show the parent of a compound that is named as a salt.

Data set [1] can be described thus: Cytotoxicity in HEp-2 cells (CCK8). The settings on record: human.
Data set [2] is described as follows: in vitro. The note with it: dog.
Data set [3] has as its system influenza virus (IFV) A/California/07/2009 (H1N1) pdm09 strain. Nature of the data set: In vitro activity against influenza virus (CPE, CCK8, MDCK cells). Format: cell-based. The settings on record: 120 h, read-out: IFV (MDCK) EC50.
Data set [4] deals with respiratory syncytial virus (RSV) A long strain. Nature of the data set: In vitro activity against respiratory syncytial virus (CPE, CCK8, HEp-2 cells). The note with it: human respiratory syncytial virus, 120 h, MOI=0.02, 5 days. Format: cell-based.

Usually pEC50 stands for the EC50 on a negative log10 scale, so that one unit is a factor of ten. For `CCC(CC)C(=O)OC[C@@]1(F)O[C@@H](n2ccc(=O)n(COC(=O)c3cccnc3)c2=O)[C@H](O)[C@@H]1O` [Compound X211], in data set [1], the CC50 at 5 days is > 10 µM. The CC50 in data set [2] was > 10 µM. Further, the values for the pEC50 in data set [3] and in data set [4] were 5.48 and 5.24, respectively.

Regarding `CC(C)C(=O)OC[C@@]1(F)O[C@@H](n2ccc(=O)n(COC(=O)c3cccnc3)c2=O)[C@@H]2OC(=O)O[C@@H]21` [Compound X214], the CC50 at 5 days in data set [1] is > 10 µM. In data set [2], the CC50 was > 10 µM. Moreover, the values for the pEC50 in data set [3] and in data set [4] were > 6.43 and 5.68, respectively.

For `CCC(=O)OC[C@@]1(F)O[C@@H](n2ccc(=O)n(COC(=O)c3cccnc3)c2=O)[C@H](OC(=O)CC)[C@@H]1OC(=O)CC` [Compound X220], the CC50 at 5 days in data set [1] was > 10 µM. For the same molecule, the CC50 in data set [2] was > 10 µM. The pEC50 in data set [3] is 6.09; in data set [4], 5.89.

Turning to `CCC(CC)C(=O)OCn1c(=O)ccn([C@@H]2O[C@](F)(COC(=O)c3cccnc3)[C@@H](O)[C@H]2O)c1=O` [Compound X223], the CC50 at 5 days in data set [1] was > 10 µM. The CC50 in data set [2] was > 10 µM. The pEC50 in data set [3] was 6.09; in data set [4], 5.67.

In the case of `O=C(OCn1c(=O)ccn([C@@H]2O[C@](F)(COC(=O)c3cccnc3)[C@@H](O)[C@H]2O)c1=O)c1cccnc1` [Compound X231], in data set [1], the CC50 at 5 days was > 10 µM. Also, the CC50 in data set [2] was > 10 µM. Also, the pEC50 was 6.29 in data set [3] and 5.94 in data set [4].

On to `O=C(OCn1c(=O)ccn([C@@H]2O[C@](F)(COC(=O)c3cccnc3)[C@@H](OC(=O)c3cccnc3)[C@H]2OC(=O)c2cccnc2)c1=O)c1cccnc1` [Compound X232], for which the CC50 at 5 days in data set [1] was > 10 µM. In data set [2], the CC50 is > 10 µM. For the same molecule, the pEC50 in data set [3] was 6.07; in data set [4], 5.95.

For the molecule `O=C1O[C@H]2[C@H](n3ccc(=O)n(COC(=O)c4cccnc4)c3=O)O[C@](F)(COC(=O)c3cccnc3)[C@H]2O1` [Compound X233], in data set [1], the CC50 at 5 days is > 10 µM. Moreover, in data set [2], the CC50 is > 10 µM. Moreover, the pEC50 is 6.34 in data set [3] and 5.92 in data set [4].

`CC(C)C(=O)O[C@H]1[C@H](n2ccc(=O)n(COC(=O)c3cccnc3)c2=O)O[C@](F)(COC(=O)c2cccnc2)[C@H]1OC(=O)C(C)C` [Compound X257]: in data set [1], the CC50 at 5 days is > 10 µM. Besides, in data set [2], the CC50 is > 10 µM. For the same molecule, the results for the pEC50 in data set [3] and in data set [4] were 5.86 and 5.79, respectively.

In the case of `CCN(CC)CC(=O)OCn1c(=O)ccn([C@@H]2O[C@](F)(COC(=O)C(C)C)[C@@H](OC(=O)C(C)C)[C@H]2OC(=O)C(C)C)c1=O` [Compound X260], the CC50 at 5 days in data set [1] was > 10 µM. For the same molecule, the CC50 in data set [2] is > 10 µM. The results for the pEC50 in data set [3] and in data set [4] were > 6.43 and 5.63, respectively.

With `CC(C)C(=O)OC[C@@]1(F)O[C@@H](n2ccc(=O)n(COC(=O)CN(C)C)c2=O)[C@H](OC(=O)C(C)C)[C@@H]1OC(=O)C(C)C` [X100 hydrochloride], the CC50 at 5 days in data set [1] is > 10 µM. Also, in data set [2], the CC50 was > 10 µM. Besides, the results for the pEC50 in data set [3] and in data set [4] were 6.39 and 5.75, respectively.
